Data on 28 compounds can be found in US5385894A, “Disubstituted 6-aminoquinazolinones” (Merck & Co., Inc., priority 1994, dated 1995).

Broadly, the logP is a log measure of how a compound divides between an organic and an aqueous phase. A high value points to higher lipophilicity. As a reminder, the log P is the decadic logarithm of the partition coefficient of the neutral form, usually between octanol and water. High values mean higher lipophilicity, low ones lower lipophilicity.

SMILES strings stand for the structures.

Tested on in one data set: not listed separately
The data set is described as follows: log P (Table 1). Format: physicochemical.
Conditions: not given
In turn, `CCCc1nc2ccc(N(Cc3ccccc3)C(=O)c3ccccn3)cc2c(=O)n1Cc1ccc(-c2ccccc2-c2nn[nH]n2)cc1` [Example 136] had a logP of 3.8.

As to `CCCc1nc2ccc(N(Cc3ccccn3)C(=O)c3ccccc3)cc2c(=O)n1Cc1ccc(-c2ccccc2-c2nn[nH]n2)cc1` [Example 137], the logP was 3.4.

Take `CCCc1nc2ccc(N(Cc3ccncc3)C(=O)c3ccccc3)cc2c(=O)n1Cc1ccc(-c2ccccc2-c2nn[nH]n2)cc1` [Example 138]: the logP is 3.4.

`CCCc1nc2ccc(N(Cc3ccccc3)C(=O)c3ccncc3)cc2c(=O)n1Cc1ccc(-c2ccccc2-c2nn[nH]n2)cc1` [Example 139] registered a logP of 3.7.

In the case of `CCCc1nc2ccc(N(Cc3ccccc3)C(=O)c3ccccn3)cc2c(=O)n1Cc1ccc(-c2ccccc2-c2nn[nH]n2)cc1` [Example 140], the “log P” value is reported as 3.7.

As to `CCCCN(C(=O)c1ccc(O)cc1)c1ccc2nc(CCC)n(Cc3ccc(-c4ccccc4-c4nn[nH]n4)cc3)c(=O)c2c1` [Example 144], the logP came out at 4.2.

`CCCc1nc2ccc(N(Cc3ccccn3)C(=O)c3ccncc3)cc2c(=O)n1Cc1ccc(-c2ccccc2-c2nn[nH]n2)cc1` [Example 145] gave a logP of 2.7.

The compound `CCCCCN(C(=O)c1ccc(OP(=O)(O)O)cc1)c1ccc2nc(CCC)n(Cc3ccc(-c4ccccc4-c4nn[nH]n4)cc3)c(=O)c2c1` [Example 146] showed a logP of 3.4.

The compound `CCCc1nc2ccc(N(Cc3ccccc3)C(=O)c3ccc(O)cc3)cc2c(=O)n1Cc1ccc(-c2ccccc2-c2nn[nH]n2)cc1` [Example 147] had a logP of 4.

For `CCCc1nc2ccc(N(Cc3ccccn3)C(=O)c3ccco3)cc2c(=O)n1Cc1ccc(-c2ccccc2-c2nn[nH]n2)cc1` [Example 148], the logP turned out to be 3.2.

In turn, `CCCOC(=O)N(Cc1ccncc1)c1ccc2nc(CCC)n(Cc3ccc(-c4ccccc4-c4nn[nH]n4)cc3)c(=O)c2c1` [Example 156] yielded a logP of 3.8.

`CCCOC(=O)N(Cc1cccnc1)c1ccc2nc(CCC)n(Cc3ccc(-c4ccccc4-c4nn[nH]n4)cc3)c(=O)c2c1` [Example 158] displayed a logP of 3.8.

`CCCOC(=O)N(Cc1ccccn1)c1ccc2nc(CCC)n(Cc3ccc(-c4ccccc4-c4nn[nH]n4)cc3)c(=O)c2c1` [Example 159] had a logP of 3.9.

Compound `CCCc1nc2ccc(N(Cc3ccncc3)C(=O)OCCOC)cc2c(=O)n1Cc1ccc(-c2ccccc2-c2nn[nH]n2)cc1` [Example 160] came in with a logP of 2.7.

In the case of `COCc1nc2ccc(N(C)C(=O)OCC(C)C)cc2c(=O)n1Cc1ccc(-c2ccccc2-c2nn[nH]n2)cc1` [Example 161], the logP came to 3.7.

Turning to `CCCOC(=O)N(Cc1ccccn1)c1ccc2nc(COC)n(Cc3ccc(-c4ccccc4-c4nn[nH]n4)cc3)c(=O)c2c1` [Example 162], the logP was determined as 3.3.

As to `CCCc1nc2ccc(N(Cc3ccccn3)C(=O)OCC)cc2c(=O)n1Cc1ccc(-c2ccccc2-c2nn[nH]n2)cc1` [Example 164], the logP worked out at 3.5.

Regarding `CCCOC(=O)N(Cc1ccc(N)cc1)c1ccc2nc(CCC)n(Cc3ccc(-c4ccccc4-c4nn[nH]n4)cc3)c(=O)c2c1` [Example 166], the logP is 3.9.

As to `CCCc1nc2ccc(N(Cc3ccc(F)cc3)C(=O)N(C)C(C)C)cc2c(=O)n1Cc1ccc(-c2ccccc2-c2nn[nH]n2)cc1` [Example 174], the logP came out at 4.8.

`CCCc1nc2ccc(N(Cc3ccccn3)C(=O)N(C)C(C)C)cc2c(=O)n1Cc1ccc(-c2ccccc2-c2nn[nH]n2)cc1` [Example 175] displayed a logP of 3.7.

In the case of `CCCc1nc2ccc(N(Cc3ccccc3)C(=O)c3ccccc3Oc3ccccc3)cc2c(=O)n1Cc1ccc(-c2ccccc2-c2nn[nH]n2)cc1` [Example 178], the logP was 4.2.

`CCCc1nc2ccc(N(Cc3ccc(O)cc3)C(=O)c3ccccc3)cc2c(=O)n1Cc1ccc(-c2ccccc2-c2nn[nH]n2)cc1` [Example 179]: the lipophilicity (logP) turned out to be 3.6.

For `CCCc1nc2ccc(N(Cc3ccccc3)C(=O)c3ccc(C(=O)O)cc3)cc2c(=O)n1Cc1ccc(-c2ccccc2-c2nn[nH]n2)cc1` [Example 180], the logP was determined as 2.9.

In turn, `CCCc1nc2ccc(N(Cc3cccnc3)C(=O)c3ccc(O)cc3)cc2c(=O)n1Cc1ccc(-c2ccccc2-c2nn[nH]n2)cc1` [Example 181] came in with a logP of 2.8.

The compound `CCCc1nc2ccc(N(Cc3ccc(C(=O)O)cc3)C(=O)c3ccccc3)cc2c(=O)n1Cc1ccc(-c2ccccc2-c2nn[nH]n2)cc1` [Example 182] showed a logP of 2.4.

As to `CCCc1nc2ccc(N(Cc3ccc(C(=O)OC)cc3)C(=O)c3ccccc3)cc2c(=O)n1Cc1ccc(-c2ccccc2-c2nn[nH]n2)cc1` [Example 183], the logP is 4.4.

For a further data set, the system named is rats pretreated with scopolamine.
Experiment: not given
Particulars: cited from earlier work.
Turning to `CNC(=O)Oc1ccc2c(c1)[C@]1(C)CCN(C)[C@@H]1N2C` [physostigmine], the “activity in rat passive avoidance assay” value was “active”.

The subject of another data set is male Sprague-Dawley rats.
Experiment: not given
Particulars: rat; cited from earlier work.
Turning to `CN1C(=O)CN=C(c2ccccc2)c2cc(Cl)ccc21` [Diazepam], the “activity in CER assay” value was “active”.
